# Results reported in patent publication US12121510B2 (Cedars-Sinai Medical Center, priority 2016, dated 2024).
# Assays:
# [1] = system: Namalwa human lymphoma xenograft tumors; experiment: Immunohistochemical staining of xenograft tumors; format: in vivo; settings: Namalwa xenograft tumors of mice
# Text: (§1) These normal kidney and liver tissues were obtained from mice harbored with human Burkitt's lymphoma.
# [2] = system: PARP, Caspase 9 and p53 in Caki-1 cells; experiment: Western blot of apoptosis related proteins; format: cell-based, human
# Text: Results also confirm elevated expression of p53 (a tumor suppressor) in human kidney cancer Caki cells (see panel D in FIG. 9).
# mouse kidney = experiment: Kidney histopathology (hematoxylin and eosin); format: in vivo; settings: normal kidney of mice implanted with kidney tumors
# [3] = system: caspase-3 and-7 activities in Caki-1 cells; experiment: CaspaseGlo 3/7 luminescent apoptosis assay; format: cell-based, human; settings: 24 hours after treatment
# Text: Caspase-Glo® 3/7 Assay (Promega) is a homogeneous, luminescent assay that measures caspase-3 and-7 activities that provides a luminogenic caspase-3/7 substrate, which contains the tetrapeptide sequence DEVD, in a reagent optimized for caspase activity, luciferase activity and cell lysis. A single Caspase-Glo 3/7 Reagent in an “add-mix measure” format results in cell lysis, followed by caspase cleavage of the substrate and generation of a “glow-type” luminescent signal, produced by luciferase. Luminescence is proportional to the amount of caspase activity present. Caspase-Glo® 3/7 Reagent is prepared, mixed and the reagent and the 96-well plate containing cells are equilibrated to room temperature. […] The plate is incubated at room temperature for 30 minutes to 3 hours, depending upon the cell culture system (optimal incubation period determined empirically). Luminescence of each sample is measured in a plate-reading luminometer. […]
# B-cell lymphoma cells (Namalwa) are cultured in RPMI 1640, 10% fetal bovine serum, 1% PenStrep, and placed in a humidified atmosphere containing 5% CO2 at 37° C. […] 100 microliters of Caspase-Glo 3/7 assay is added and luminescence is then read. […] 100 microliters of Caspase-Glo 3/7 assay is added and luminescence is then read.
# [4] = system: normal mouse kidney and liver; experiment: Immunohistochemical staining of normal kidney and liver; format: in vivo; settings: mice harbored with human Burkitt's lymphoma
# Text: as §1
# Caki-1 = experiment: Renal cancer cell growth IC50 (crystal violet); format: cell-based, human; settings: Example 11
# Text: Exemplary Embodiments are generally performed as follows, unless otherwise noted. Simvastatin is purchased from Ark Pharm, Inc. (Arlington Heights, IL). Cisplatin (CIS) is purchased from MedKoo Biosciences, Inc. (Chapel Hill, NC). Dihydroartemisinin is purchased from TCI America (Portland, OR). All other chemicals and reagents are purchased from standard sources such as Sigma-Aldrich and/or VWR and are of highest quality available. Puromycin dihydrochloride was purchased from Alfa Aesar (Tewksbury, MA). Deionized water ([…]) used for making solutions is obtained from Milli-Q Direct Ultrapure Water System from Millipore (Billerica, MA, USA). All intermediates are characterized by 1H NMR and mass analysis and the purity of compounds are analyzed by HPLC. 1H NMR data are collected on Bruker 400 MHz spectrometers using standard parameters; chemical shifts are reported in ppm (δ) in reference to residual non-deuterated solvent. ESI mass spectroscopy analysis is performed using a Thermo Fisher LTQ Orbitrap Elite system. IC50 is the half maximal inhibitory concentration and determined is determined by crystal violet assay unless otherwise noted.
# (§2) The crystal violet assay is performed as follows, unless otherwise noted. Cell lines are supplemented with RPMI 1640 medium, 10% fetal bovine serum, 1% PenStrep, and placed in a humidified atmosphere containing 5% CO2 at 37° C. 5,000 cells/well renal cancer cells and 10,000 cells/well lymphoma cells are seeded in 96 well plates in 100 microliter medium/per well for 24 h. […] Renal cancer cells are fixed with 3.7% paraformaldehyde for 15 minutes and are stained with Crystal violet solution (0.5% in 25% methanol) for 30 minutes. After rinsing with water cell layers are dried and decolorized with Sorenson citrate with shaking for 20 minutes. Light absorption of the extracted supernatant is read at 595 nm. Lymphoma cell growth was evaluated using MTT and cells are incubated for 4 hours. 100 microliters of isopropanol is added, and the extracted supernatant fraction is read at absorption maximum of 595 nm.
# Standard cell culture conditions typically are RPMI 1640 medium, 10% fetal bovine serum, 1% PenStrep, and are performed in a humidified atmosphere containing 5% CO2 at 37° C. Generally, 5,000 cells/well-10,000 cells/well are seeded in 96 well plates in 100 microliter medium/per well for 24 h, or as described in Example 16, unless otherwise noted. Certain cells require specialized media, growth factors, antibiotics, or culture condition adjustments, as will be apparent to a person of ordinary skill in the art.
# as §2, with “Cell” for “The crystal violet assay is performed as follows, unless otherwise noted. Cell”, “cultured as follows. […]” for “supplemented with RPMI 1640 medium, 10% fetal bovine serum, 1% PenStrep, and placed in a humidified atmosphere containing 5% CO2 at 37° C.”, “is” for “was”
smiles,measurement,setting,value
CC1(C)C(/C=C/C2=C(Cl)C(=C/C=C3/N(CCCCCC(=O)[O][Pt]([NH2])([NH2])([OH])([Cl])[Cl])c4ccccc4C3(C)C)/CCC2)=[N+](CCCCS(=O)(=O)[O-])c2ccccc21 [DZ-CIS ester],Apoptosis in xenograft tumors (cleaved caspase-3 and M30),[1],increased apoptosis
same,Cell proliferation in xenograft tumors (Ki67),[1],decreased cell proliferation
same,"Expression of apoptosis related proteins PARP, Caspase 9 and p53",[2],induces elevation of apoptosis related proteins
same,"Kidney damage, histopathology",mouse kidney,protects from more severe kidney damage
same,"Level of apoptosis, CaspaseGlo 3/7",[3],increased apoptosis
same,Apoptosis markers (cleaved caspas-3 and M30) / damage in normal kidney and liver,[4],protects normal kidney and liver from damage by CIS
same,In vitro growth of Caki-1,Caki-1,inhibited by DZ-CIS
